Source: PMC4554797 (Bioorganic & medicinal chemistry, 2015)
Entries after “also recorded” stand apart in the source; their conditions may differ.

How the values were obtained:
Melanoma tumors = assay: Tumor specimen analysis; format: in vivo, athymic nude mice
ATX [1] = molecular target: T1, ATX (Homo sapiens, UniProt Q13822); assay: Dilution/dialysis washout experiment, ATX activity by FS-3; format: biochemical; settings: pre-incubated two minutes, over 1000-fold dilution over approximately one hour
ATX [2] = molecular target: T1, ATX; assay: ATX Inhibitor Screening Kit, FS-3 hydrolysis; format: biochemical; settings: for ATX inhibition (in words): dose-response mode, highest test concentration 10 μM
KC/CXCL1 = assay: Serum analysis, mouse Bio-Plex 23-Plex panel; format: in vivo; settings: at necropsy; p<0.05 at 20 mg/kg, p<0.001 at 50-40 mg/kg vs. control
VEGF = assay: Serum analysis, circulating VEGF; format: in vivo, mouse; settings: data not shown
[3] = system: multiple cancer cell lines; assay: Cell viability assay; format: cell-based, human; settings: 48 h; for Effect on cell viability (in words): HT-29, PC-3, MDA-MB-231, MeWo, SB-2, OVCAR-3, SKOV-3
MeWo cells = assay: Animal model of melanoma; format: in vivo, athymic nude mice; settings: for Tumor growth vs. DMF control: 30 mg/kg i.p. three times a week
ATX [4] = assay: Serum analysis, mouse ENPP2 ELISA; format: in vivo; settings: at necropsy
OVCAR-3 = assay: Wound healing assay; format: cell-based, human; settings: OVCAR-3, 5 μM
MDA-MB-231 = assay: Wound healing assay; format: cell-based, human; settings: MDA-MB-231, 5 μM
[5] = system: MDA-MB-231, OVCAR-3, SKOV-3 and MeWo cells; assay: Wound healing assay, all cell lines examined; format: cell-based, human
MeWo = assay: Cell viability assay; format: cell-based, human; settings: MeWo cells, 48 h, over the concentrations tested

C=C(CCCCCCCCCCCCCCCC)S(=O)(=O)CCC[N+](C)(C)C.[Cl-] [CVS-16, N,N,N-trimethyl-3-(octadec-1-en-2-ylsulfonyl)propan-1-aminium chloride]
Specimens with mixed areas of viable and necrotic endothelial cells (Melanoma tumors; 20 mg/kg): 50%
Specimens with only viable endothelial cells (Melanoma tumors; 20 mg/kg): 50%
Percent of necrotic tissue within the tumor (Melanoma tumors; 40-50 mg/kg, p<0.01 vs. control, p<0.05 vs. 20 mg/kg): significantly more necrosis than control
Ki-67 staining of tumor sections (Melanoma tumors; data not shown): no significant differences
ATX inhibition after washout (ATX [1]): did not decrease the ATX inhibition
ATX inhibition after short pre-incubation (ATX [2]; pre-incubating ATX with compound for 2 minutes): complete inhibition
Serum KC/CXCL-1 (KC/CXCL1): significant reduction
Circulating VEGF vs. controls (VEGF): did not observe any change
Concentration range of significant activity on cell viability [3]: 0.5 to 5 µM
Effect on cell viability (in words) [3]: reduced cell viability to some extent
Tumor volume vs. control (MeWo cells; 20 mg/kg i.p. three times a week): no significant difference
Time over which inhibition of tumor volume was sustained (MeWo cells; 40-50 mg/kg, days after the injection of tumor cells): approximately 53 days
Tumor sizes vs. control (MeWo cells; 50-40 mg/kg i.p. three times a week, day 57 (p<0.05) and day 65 (p<0.001)): achieved statistical significance
Melanoma progression in in vivo tumor model (MeWo cells; dose not given at this place): significantly inhibited melanoma progression
Circulating ATX in serum vs. control (ATX [4]; CVS-16 treated animals, p<0.05): significant reduction
Reduction of wound healing (OVCAR-3): over 75%
Deaths (50 mg/kg group (n=5)): one mouse
Clinical condition of mice (50 mg/kg i.p., 46th day of the study): severely dehydrated
Reduction of wound healing (MDA-MB-231): over 75%
Wound healing (in words) ([5]; 5 μM, 24 h, vs. untreated): inhibited wound healing
Wound closure in combination with LPA ([5]; CVS-16 5 μM combined with LPA (18:1, 1 μM), in most cases): LPA was not able to overcome the inhibition

O=C1S/C(=C\c2ccc(OCc3cccc(B(O)O)c3)cc2)C(=O)N1Cc1ccc(F)cc1 [HA-130, reference compound]
Tumor growth vs. DMF control (MeWo cells): neither of these ATX inhibitors reached statistical significance; also recorded: did not impact tumor progression
Circulating ATX in serum vs. control (ATX [4]; 30 mg/kg): no significant difference

O=C(CCN1CCN(C(=O)OCc2cc(Cl)cc(Cl)c2)CC1)c1ccc2[nH]c(=O)oc2c1 [PF-8380, reference compound]
Tumor growth vs. DMF control (MeWo cells): neither of these ATX inhibitors reached statistical significance; also recorded: did not impact tumor progression
Circulating ATX in serum vs. control (ATX [4]; 30 mg/kg): no significant difference

C=C(CCCCCCCCCCCCCCCC)S(=O)(=O)c1ccccc1 [PVS-16]
ATX inhibition after washout (ATX [1]): no evidence of inhibiting ATX activity
ATX inhibition (in words) (ATX [2]): did not inhibit ATX
ATX inhibition (in words) (ATX [2]; listed as PVS-16 (21)): no binding effect
Effect on cell viability (in words) [3]: little effect on cell viability
Effect on cell viability (in words) ([3]; listed as PVS-16 (21)): most cell types were unaffected

CN(C)/N=N/c1[nH]cnc1C(N)=O [dacarbazine]
Cell viability reached (MeWo): ≥ 50%

CC(=O)O[C@H]1C(=O)[C@@]2(C)[C@H]([C@H](OC(=O)c3ccccc3)[C@]3(O)C[C@H](OC(=O)[C@H](O)[C@@H](NC(=O)c4ccccc4)c4ccccc4)C(C)=C1C3(C)C)[C@]1(OC(C)=O)CO[C@@H]1C[C@@H]2O [paclitaxel]
Cell viability reached (MeWo): ≥ 50%

CC[C@]1(O)C[C@H]2CN(CCc3c([nH]c4ccccc34)[C@@](C(=O)OC)(c3cc4c(cc3OC)N(C=O)[C@H]3[C@@](O)(C(=O)OC)[C@H](OC(C)=O)[C@]5(CC)C=CCN6CC[C@]43[C@@H]65)C2)C1 [vincristine]
Cell viability reached (MeWo): ≥ 50%
